In patent US20240294467A1, “USP9X Inhibitors” (ProDeg, LLC, priority 2021, published 2024):
Like-named read-outs stand apart in the source and are kept apart here.

Columns and labels:
[1] = target: T1, USP9X (Homo sapiens (Human), UniProt Q93008); test: Steady-state enzyme inhibition kinetics of USP9X; type: biochemical
Source text: The data were fit to a general model for enzyme inhibition (FIG. 1E) so the values of the parameters determined from the assays specified the mode of inhibition. For example, in the case of α=1 and β=0, it corresponded to purely non-competitive inhibition. For α=infinity and p=1, it corresponded to purely competitive inhibition. The values of all the parameters, KS, KI, kcat, α, and β could be determined from the steady state measurements. The enzyme reactions were set up as described in the Inhibiting the catalytic activity of USP9X section. The concentration of the substrate ubqiutin-rhodamine110 was varied. The initial rates of the reactions were determined at several concentrations of the inhibitor Compound 2A. In order to determine the values of the parameters KS and kcat, the reaction rates in the absence of the inhibitor Compound 2A, the initial reaction rate data were fit to the standard Michaelis-Menten equation v=Vmax [S]/(Km+[S]). The values of α and β could then be determined by fitting the initial rate data of the enzyme reaction at various concentrations of Compound 2A to a modified version of the Michaelis-Menten equation, designating both Vmax and KS apparent to distinguish the apparent values of the parameters determined from these plots to the true values for these parameters determined from the steady state kinetics in the absence of Compound 2A. The values of α and β could be determined from the variation of the slopes and intercepts of the series of double reciprocal plots of 1/v versus 1/[S] for each concentration of Compound 2A. […] The two values determined for KI were from the two different plots.
The two values for KI were determined by two different methods for determining this parameter from the kinetic data: 1 represented a value determined from the slope of the 1/A intercept vs 1/[I] plot; 2 represented a value determined from the y intercept of the 1/A slope vs 1/[I] plot. […] Only the values of the parameters varied for the compounds.

[2] = target: T1, USP9X; test: USP9X enzyme activity assay, ubiquitin-rhodamine110 substrate
Description: The inhibition property of compound Compound 1A was evaluated in assays measuring the ability of USP9X to catalyze the hydrolysis of the amide bond between the C terminal carboxylate of ubiquitin and rhodamine110 of the fluorogenic substrate ubiquitin-rhodamine 110. To the wells of a 96 well reaction plate was added 12.5 μL USP9X solution (1.3 nM) in assay buffer (100 mM NaCl, 1 mM DTT, 0.1% bovine serum albumin, 0.05% Tween 20, 50 mM Tris, pH 7.5). 12.5 μL of Compound 1A in assay buffer (4×final concentration) was added to the wells containing the USP9X solution, and the solution was gently mixed by pipetting up and down several times. The plate was sealed and incubated at room temperature for 20 minutes.
Then 25 μL of the 1 μM substrate (ubiquitin-rhodaminel10) solution was added in assay buffer. The final substrate concentration was 0.5 μM. […] The slope for the rate of change of the fluorescence was determined and plotted vs the concentration of Compound 1A.
USP9X enzyme assays were set up in a 96 well plate to assess the abilities of Compound 3A and Compound 4A to inhibit the activity of USP9X, respectively. Ubiquitin-rhodamine110 was used as the substrate and ubiquitin aldehyde was included in the assay as a positive control.
Purified recombinant USPx9 (R&D Systems) in 50 mM Tris buffer pH 7.5, 1 mM DTT, 100 mM NaCl, 0.05% Tween 20 and 0/1% BSA is used at a concentration of 0.325 nM with 0.5 μM ubiquitin-rhodamine (R&D Systems).

[3] = system: Mcl-1; test: Western blot of Mcl-1 in U937 cells; type: cell-based
Description: After 24 hours treatment with Compound 7A, U937 cells were collected by centrifugation and whole cell lysates were prepared. These lysates were analyzed by Western blot to determine the level of Mcl-1. Western blot analysis was carried out as previously described (Wang et al., 2014 Journal of the American Society of Nephrology DOI: 10.1681/asn.2013060665). The band intensity for Mcl-1 in these samples were normalized to that of tubulin to correct for any inconsistencies in total protein in loading and processing the whole cell lysates.
To investigate the mechanism of action, Western blot analysis was carried out to test the induced degradation of USP9X substrate Mcl-1 by the compounds under the effects of protein synthesis inhibitor cycloheximide and/or proteasome inhibitor MG132. U937 cells were treated with 10 μM cycloheximide for one hour, with 10 μM MG132 for one hour, with the combination of 10 μM cycloheximide and 10 μM MG132 for one hour, and with vehicle (DMSO) for one hour, respectively, prior to the treatment with Compound 5A for 24 hrs. The U937 cells were harvested after treatment and whole cell lysates were prepared. These lysates were analyzed by Western blot to determine the abundance of Mcl-1 as well as that of tubulin as a normalization control. […] The band intensity of the Mcl-1 in cells treated with cycloheximide alone (Lane 2) was reduced relative to that for tubulin. […] Global blockade of protein synthesis by cycloheximide led to a significant decrease in the expression levels, especially for short lived Mcl-1. The retention of a reduced portion of Mcl-1 indicated the immunity of this portion to proteasomal degradation. […] In contrast, the band intensity of Mcl-1 relative to that of tubulin increased upon treatment of U937 cells with the proteasome inhibitor MG132 (Lane 4). […] Together, the results of this Example are consistent with the compounds acting on the proposed mechanism that intracellular inhibition of the deubiquitylase activity of USP9X blocks its ability to rescue USP9X substrates such as Mcl-1 from proteasomal degradation. In other aspects, by varying the concentration ratios of the compound and proteasome inhibitor for treating cells, it was possible to achieve controlled degradation of a USP9X substrate so the substrate could decline to a desirable level rather than degrade entirely.

[4] = system: RKO; test: ONCOLINES Profiler proliferation; type: cell-based; settings: for IC50: colon carcinoma
Source text: (§1) The compounds were profiled on an ONCOLINES™ Profiler (Netherlands Translational Research Center) assayed with 66 cancer cell lines to determine if they were capable of inhibiting the proliferation of these cancer cells.
(§2) To further evaluate potency of the compounds, they were compared with the USP9X inhibitor WP 1130 by screening both the compounds and WP1130 on a 66-cancer cell line panel ONCOLINES™ Profiler.

[5] = system: LoVo; test: ONCOLINES Profiler proliferation; type: cell-based; settings: for IC50: colorectal adenocarcinoma
Source text: as §1, §2

[6] = system: A549; test: ONCOLINES Profiler proliferation; type: cell-based
Source text: as §1, §2

[7] = system: SK-BR3 breast cancer cells; test: WST-1 cell viability assay; type: cell-based; settings: Homo sapiens, SK-BR-3, 72-hour treatment, read-out: IC50, inhibiting proliferation
Description: Compound Compound 9A was tested for the ability to inhibit the proliferation of Mia-Paca-2 pancreatic cancer cells. Mia-Paca-2 and MDA-MB-231 cells were seeded into the wells of a 96 well tissue culture plate in complete medium (10% fetal calf serum) and incubated overnight at 37° C./5% CO2). The medium was exchanged for fresh medium containing varying concentrations of Compound 9A and the plate was incubated for 72 hours at 37° C./5% CO2. The viability of cells at the end of this incubation was assessed with the WST-1 reagent. To 10 ml of warm (37° C.) complete medium, 1 ml WST-1 reagent was added. The medium from the wells of the plate with the Mia-Paca-2 cells was removed and replaced with 100 μL of the WST-1 reagent in complete medium. The plate was incubated at 37 37° C./5% CO2. At timed intervals the absorbance at 450 nm was determined for each well in a UVNis plate reader. For each well the slope of the plot of the absorbance 450 nm vs time was determined. The readings were normalized to that of the wells for the untreated control and a dose-response curve was plotted. A fit to the data was made from a four parameter, variable slope program (GraphPad Prism) and the IC50 was determined.
Another substrate of USP9X is the receptor tyrosine kinase erbB2. […] The breast cancer cell line SK-BR3 expresses high levels of erbB2. […]

[8] = from the slope of the 1/Δ intercept vs 1/[I] plot, read-out: KI, nM (1)
[9] = from the y intercept of the 1/Δ slope vs 1/[I] plot, read-out: KI, nM (2)
[10] = read-out: IC50 for the inhibition of USP9X activity, ubiquitin-rhodamine110 substrate
[11] = read-out: USP9X IC50 nM, Table 2

T1 sequence (Q93008 whole entry): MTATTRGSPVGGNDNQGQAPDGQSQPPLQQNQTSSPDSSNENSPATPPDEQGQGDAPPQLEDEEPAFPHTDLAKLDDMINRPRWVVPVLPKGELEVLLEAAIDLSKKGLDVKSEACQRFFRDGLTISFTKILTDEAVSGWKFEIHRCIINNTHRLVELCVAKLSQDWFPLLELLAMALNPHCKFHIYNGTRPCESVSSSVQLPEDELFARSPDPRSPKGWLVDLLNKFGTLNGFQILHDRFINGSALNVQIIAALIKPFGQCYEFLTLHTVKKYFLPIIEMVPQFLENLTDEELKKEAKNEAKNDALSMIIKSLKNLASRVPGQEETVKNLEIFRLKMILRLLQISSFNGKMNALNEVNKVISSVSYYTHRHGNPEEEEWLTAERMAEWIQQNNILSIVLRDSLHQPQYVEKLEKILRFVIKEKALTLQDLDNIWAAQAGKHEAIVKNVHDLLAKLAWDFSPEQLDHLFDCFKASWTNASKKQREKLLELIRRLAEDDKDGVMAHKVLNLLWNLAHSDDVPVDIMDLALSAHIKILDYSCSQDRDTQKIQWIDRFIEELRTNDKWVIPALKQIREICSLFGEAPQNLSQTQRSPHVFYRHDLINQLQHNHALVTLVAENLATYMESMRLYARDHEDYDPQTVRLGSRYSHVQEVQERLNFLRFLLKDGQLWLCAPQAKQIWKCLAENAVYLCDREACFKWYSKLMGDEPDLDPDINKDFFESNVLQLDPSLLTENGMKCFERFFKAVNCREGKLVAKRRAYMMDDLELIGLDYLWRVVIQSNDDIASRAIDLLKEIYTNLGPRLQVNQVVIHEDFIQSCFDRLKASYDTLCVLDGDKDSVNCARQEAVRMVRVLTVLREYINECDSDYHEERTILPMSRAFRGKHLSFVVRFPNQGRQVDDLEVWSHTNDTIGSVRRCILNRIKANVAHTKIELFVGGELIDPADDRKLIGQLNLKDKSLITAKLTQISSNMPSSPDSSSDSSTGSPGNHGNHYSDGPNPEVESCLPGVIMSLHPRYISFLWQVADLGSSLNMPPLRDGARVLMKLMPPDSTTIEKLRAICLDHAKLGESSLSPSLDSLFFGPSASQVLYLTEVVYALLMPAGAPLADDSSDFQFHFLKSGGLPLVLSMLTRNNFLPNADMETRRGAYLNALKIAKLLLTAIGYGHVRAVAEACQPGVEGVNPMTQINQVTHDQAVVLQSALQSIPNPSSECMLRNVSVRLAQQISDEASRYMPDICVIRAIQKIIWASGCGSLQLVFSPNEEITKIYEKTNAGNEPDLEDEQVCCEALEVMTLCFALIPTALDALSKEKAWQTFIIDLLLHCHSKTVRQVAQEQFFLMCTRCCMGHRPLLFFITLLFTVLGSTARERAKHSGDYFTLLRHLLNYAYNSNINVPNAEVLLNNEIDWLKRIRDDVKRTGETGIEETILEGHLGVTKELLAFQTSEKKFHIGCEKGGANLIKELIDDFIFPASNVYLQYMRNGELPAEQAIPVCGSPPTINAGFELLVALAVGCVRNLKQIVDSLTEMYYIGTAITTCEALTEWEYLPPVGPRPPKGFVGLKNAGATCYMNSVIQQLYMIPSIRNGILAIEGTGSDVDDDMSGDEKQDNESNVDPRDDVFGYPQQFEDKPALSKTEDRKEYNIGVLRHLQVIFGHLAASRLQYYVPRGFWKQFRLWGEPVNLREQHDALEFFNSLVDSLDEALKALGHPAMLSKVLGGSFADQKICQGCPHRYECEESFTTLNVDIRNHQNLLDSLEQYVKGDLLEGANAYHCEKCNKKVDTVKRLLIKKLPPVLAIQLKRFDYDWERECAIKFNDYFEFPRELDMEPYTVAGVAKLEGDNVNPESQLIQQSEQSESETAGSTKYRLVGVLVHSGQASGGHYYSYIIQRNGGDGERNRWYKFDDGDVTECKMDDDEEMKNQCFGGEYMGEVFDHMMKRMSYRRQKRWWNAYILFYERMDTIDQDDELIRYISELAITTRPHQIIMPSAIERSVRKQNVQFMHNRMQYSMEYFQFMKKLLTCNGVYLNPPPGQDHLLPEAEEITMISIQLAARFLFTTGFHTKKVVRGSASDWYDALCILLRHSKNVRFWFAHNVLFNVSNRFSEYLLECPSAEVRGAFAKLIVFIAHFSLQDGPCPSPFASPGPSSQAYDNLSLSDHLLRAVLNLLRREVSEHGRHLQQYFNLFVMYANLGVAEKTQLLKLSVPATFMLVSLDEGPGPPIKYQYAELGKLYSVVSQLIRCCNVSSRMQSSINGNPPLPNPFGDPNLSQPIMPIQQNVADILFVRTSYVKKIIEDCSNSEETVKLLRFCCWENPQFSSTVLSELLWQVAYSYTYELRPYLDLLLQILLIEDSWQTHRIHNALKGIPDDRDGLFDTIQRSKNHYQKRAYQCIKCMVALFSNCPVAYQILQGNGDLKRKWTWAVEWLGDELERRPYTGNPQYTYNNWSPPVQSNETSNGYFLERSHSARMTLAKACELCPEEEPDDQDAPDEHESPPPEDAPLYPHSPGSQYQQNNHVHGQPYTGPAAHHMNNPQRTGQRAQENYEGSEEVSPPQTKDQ

Row | KS [1] [µM] | VMAX RFU/min [1] [RFU/min] | α [1] | β [1] | Ki [1, 8] [nM] | Ki [1, 9] [nM] | IC50 [2, 10] [nM] | IC50 [2, 11] [nM] | IC50 Ratio WP1130/Compound 7A [5] | IC50 ([5]; Homo sapiens) [nM] | IC50 [5] [nM] | IC50 Ratio WP1130/Compound 7A ([6]; A549) | IC50 ([6]; Homo sapiens, A549, lung) [nM] | IC50 [7] [nM] | SMILES | ability to induce the degradation of Mcl-1 on addition of MG132 ([3]; 10 μM MG132 one hour before compound) | reduction of Mcl-1 ([3]; Compound 5A for 24 hrs (Lane 3)) | decrease of normalized level of Mcl-1 ([3]; 24-hour treatment, concentration from 0 to 33 μm) [%] | IC50 Ratio WP1130/Compound 7A [4] | IC50 ([4]; Homo sapiens) [nM] | IC50 [4] [nM]
1 | 1.2 | 335 | 2.3 | 0.78 | 6.7 | 24 | 30 | 30 | – | – | – | – | – | – | CN1CCOc2ccc(cc2)C(=O)NCc2cccc(c2)C(=O)N[C@@H](CC(C)(C)C)C(=O)Nc2ccc(cc2)CCN(C)C(=O)CC(C)(C)CC1=O [Compound 5A] | blocked | about 50% | – | – | – | –
2 | 1.87 | 589 | 1.85 | 0.72 | 9.4 | 10.3 | 11 | 11 | 8.6 | 635 | 640 | 4.7 | 3000 | 2700 | CN1CCOc2ccc(cc2)C(=O)NCc2ccc(F)c(c2)C(=O)N[C@@H](CC(C)(C)C)C(=O)Nc2ccc(cc2)CCN(C)C(=O)CC(C)(C)CC1=O [Compound 7A] | – | – | 50 | 4.9 | 880 | 683
